According to patent US20230096528A1, “Pharmaceutical Composition for Treatment or Prevention of Multiple Inflammatory disorders” (priority 2019, published 2023):

Test system: diet-induced (DIO) mice
Assay: Body weight study in diet-induced (DIO) mice (Example 9)
Type: in vivo, C57BL/6NTac mice
Conditions: gavage BID (DA 92.4 mg/kg, CQL 50 mg/kg)
Experimental: This example provides results of a study of DA plus another compound (CQL) on body weight in diet-induced (DIO) mice. Adult C57BL/6NTac mice were fed with a high fat diet (60%). […] The study period was for 56 days+2-3 days testing period afterward. Body weight change measure 3× per week, food and water consumption on days 0, 12, 28, 42 and 56. Metabolic biomarkers were measured on days 28 and 56. Cytokine analysis on Days 28 and 56. Serum levels of GLP-1, GLP-2, and CCK at 1 h after dosing on Days 1 and 56, and at 2 h after dosing on Day 7 (dosing (>6 h fasting prior to dosing until after blood collection); and serum level of PPY on Day 56.

With Oc1c(I)cc(Cl)c2cccnc12 [CQL] the “Serum HbA1c level at Day 28” value was “significantly reduced”, the “Serum HbA1c level at Day 56” value was “considerably increased” and the “Daily water intake at Day 28” value (vs vehicle) was “significantly decreased”.
